Assay results as given in patent US20250353891A1 (MEDIMMUNE LIMITED, priority 2022, published 2025).
Where “and” joins values, the source holds several entries; their conditions need not be identical. Equal values may be shown once. Starred links: 1 amine or outer side, 2 acyl side, 3 side chain; linkers in the order of their positions; H or OH if unused. Non-standard residues stand in square brackets, D forms with d. Residues, ends and D or L forms follow the SMILES beside them. Groups on a side chain read outwards from the residue. *: point of attachment. C20 diacid = O=C(O)CCCCCCCCCCCCCCCCCCC(=O)*; C18 diacid = O=C(O)CCCCCCCCCCCCCCCCC(=O)*; γGlu = O=C(O)[C@H](CCC(=O)[*:2])N[*:1]; αMeF = C[C@](N)(Cc1ccccc1)C(=O)O; AEEA = NCCOCCOCC(=O)O; Aib = CC(C)(N)C(=O)O

What was measured:
[1] = molecular target: human glucagon receptor (hGCGR) (Homo sapiens, UniProt P47871); test: cAMP production (HTRF) in CHO cells expressing hGCGR; type: cell-based; set-up: expressed in transfected cells; conditions: Table 6, peptides modified at position 17; cAMP in CHO hGCGR cells; geometric mean; read-out: hGluc-R EC50
Sequence of human glucagon receptor (hGCGR) (P47871 26-477): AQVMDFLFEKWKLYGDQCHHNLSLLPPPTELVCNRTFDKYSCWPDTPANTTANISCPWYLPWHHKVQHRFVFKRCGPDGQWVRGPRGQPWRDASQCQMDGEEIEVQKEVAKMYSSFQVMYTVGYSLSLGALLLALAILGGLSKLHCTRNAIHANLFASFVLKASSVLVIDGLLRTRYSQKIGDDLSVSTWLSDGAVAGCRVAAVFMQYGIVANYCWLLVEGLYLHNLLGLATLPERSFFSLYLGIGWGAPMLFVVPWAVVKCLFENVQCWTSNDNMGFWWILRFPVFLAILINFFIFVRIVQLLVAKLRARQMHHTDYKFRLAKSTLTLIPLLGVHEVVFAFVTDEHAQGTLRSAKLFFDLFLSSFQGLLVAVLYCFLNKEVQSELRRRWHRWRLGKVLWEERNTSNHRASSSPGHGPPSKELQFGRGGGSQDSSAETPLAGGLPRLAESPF
Outline: (§1)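 Cells were resuspended in assay buffer at batch-optimized density, typically 1×10^5 cells/mL for hGLP-1R and 2×10^5 cells/mL for hGCGR. After 30 min incubation at room temperature with compound, cAMP was measured by two-step HTRF. EC50 values came from 4-parameter logistic fits of % Delta F.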

[2] = molecular target: human GLP-1 receptor (hGLP-1R) (Homo sapiens, UniProt P43220); test: cAMP production (HTRF) in CHO cells expressing hGLP-1R; type: cell-based; set-up: expressed in transfected cells; conditions: for EC50: Table 6, peptides modified at position 17, cAMP in CHO hGLP-1R cells, geometric mean, read-out: hGLP-1R EC50; for % Relative Potency Ratio: Table 6, % GLP-1R activity relative to GLP-1 / % GlucR activity relative to glucagon
Sequence of human GLP-1 receptor (hGLP-1R) (P43220 24-463): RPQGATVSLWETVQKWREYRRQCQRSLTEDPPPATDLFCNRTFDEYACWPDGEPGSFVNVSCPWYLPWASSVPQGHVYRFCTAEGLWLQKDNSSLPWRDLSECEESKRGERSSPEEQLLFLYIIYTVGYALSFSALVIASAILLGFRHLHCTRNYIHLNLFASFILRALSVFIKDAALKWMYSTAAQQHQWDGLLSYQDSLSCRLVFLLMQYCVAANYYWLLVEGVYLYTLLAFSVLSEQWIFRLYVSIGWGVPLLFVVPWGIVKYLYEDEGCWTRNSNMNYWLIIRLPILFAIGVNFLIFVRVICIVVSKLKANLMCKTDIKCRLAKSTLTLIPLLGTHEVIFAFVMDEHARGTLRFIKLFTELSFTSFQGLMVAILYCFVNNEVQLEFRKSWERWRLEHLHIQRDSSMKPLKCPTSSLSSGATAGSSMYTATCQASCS
Outline: as §1

Row | EC50 [1] | EC50 [2] | % Relative Potency Ratio [2] | Structure (SMILES)
1 | 0.178 nM | 0.111 nM | 3.2 | CC(C)C[C@H](NC(=O)[C@H](Cc1c[nH]c2ccccc12)NC(=O)[C@H](CCCNC(=N)N)NC(=O)[C@@H](NC(=O)[C@H](Cc1ccccc1)NC(=O)[C@H](CC(=O)O)NC(=O)[C@H](CCC(N)=O)NC(=O)[C@H](C)NC(=O)[C@H](CCCNC(=N)N)NC(=O)[C@H](CCCCNC(=O)COCCOCCNC(=O)COCCOCCNC(=O)CC[C@H](NC(=O)CCCCCCCCCCCCCCCCCCC(=O)O)C(=O)O)NC(=O)[C@H](CO)NC(=O)[C@H](CC(=O)O)NC(=O)[C@H](CC(C)C)NC(=O)[C@](C)(Cc1ccccc1)NC(=O)[C@H](CCCCN)NC(=O)[C@H](CO)NC(=O)[C@@H](NC(=O)[C@H](CC(=O)O)NC(=O)[C@H](CO)NC(=O)[C@@H](NC(=O)[C@H](Cc1ccccc1)NC(=O)[C@@H](NC(=O)CNC(=O)[C@H](CCC(N)=O)NC(=O)C(C)(C)NC(=O)[C@@H](N)Cc1c[nH]cn1)[C@@H](C)O)[C@@H](C)O)C(C)C)C(C)C)C(=O)N[C@@H](CC(C)C)C(=O)NC(C)(C)C(=O)N[C@H](C(=O)N[C@@H](CCC(=O)O)C(=O)O)[C@@H](C)O [Peptide 151] (H-H[Aib]QGTFTSDVSK[αMeF]LDSK([AEEA-AEEA-γGlu-C20 diacid])RAQDFVRWLL[Aib]TE-OH; N-terminus assumed)
2 | 0.0204 nM | 0.0119 nM | 3.4 | CC(C)C[C@H](NC(=O)[C@H](Cc1c[nH]c2ccccc12)NC(=O)[C@H](CCCNC(=N)N)NC(=O)[C@@H](NC(=O)[C@H](Cc1ccccc1)NC(=O)[C@H](CC(=O)O)NC(=O)[C@H](CCC(N)=O)NC(=O)[C@H](C)NC(=O)[C@H](CCCNC(=N)N)NC(=O)[C@H](CCCCNC(=O)COCCOCCNC(=O)COCCOCCNC(=O)CC[C@H](NC(=O)CCCCCCCCCCCCCCCCC(=O)O)C(=O)O)NC(=O)[C@H](CO)NC(=O)[C@H](CC(=O)O)NC(=O)[C@H](CC(C)C)NC(=O)[C@](C)(Cc1ccccc1)NC(=O)[C@H](CCCCN)NC(=O)[C@H](CO)NC(=O)[C@@H](NC(=O)[C@H](CC(=O)O)NC(=O)[C@H](CO)NC(=O)[C@@H](NC(=O)[C@H](Cc1ccccc1)NC(=O)[C@@H](NC(=O)CNC(=O)[C@H](CCC(N)=O)NC(=O)C(C)(C)NC(=O)[C@@H](N)Cc1c[nH]cn1)[C@@H](C)O)[C@@H](C)O)C(C)C)C(C)C)C(=O)N[C@@H](CC(C)C)C(=O)NC(C)(C)C(=O)N[C@@H](CCC(=O)O)C(=O)O [Peptide 152] (H-H[Aib]QGTFTSDVSK[αMeF]LDSK([AEEA-AEEA-γGlu-C18 diacid])RAQDFVRWLL[Aib]E-OH; N-terminus assumed)
3 | 0.099 nM | 0.0412 nM | 4.8 | CC(C)C[C@H](NC(=O)[C@H](Cc1c[nH]c2ccccc12)NC(=O)[C@H](CCCNC(=N)N)NC(=O)[C@@H](NC(=O)[C@H](Cc1ccccc1)NC(=O)[C@H](CC(=O)O)NC(=O)[C@H](CCC(N)=O)NC(=O)[C@H](C)NC(=O)[C@H](CCCNC(=N)N)NC(=O)[C@H](CCCCNC(=O)COCCOCCNC(=O)COCCOCCNC(=O)CC[C@H](NC(=O)CCCCCCCCCCCCCCCCCCC(=O)O)C(=O)O)NC(=O)[C@H](CO)NC(=O)[C@H](CC(=O)O)NC(=O)[C@H](CC(C)C)NC(=O)[C@](C)(Cc1ccccc1)NC(=O)[C@H](CCCCN)NC(=O)[C@H](CO)NC(=O)[C@@H](NC(=O)[C@H](CC(=O)O)NC(=O)[C@H](CO)NC(=O)[C@@H](NC(=O)[C@H](Cc1ccccc1)NC(=O)[C@@H](NC(=O)CNC(=O)[C@H](CCC(N)=O)NC(=O)C(C)(C)NC(=O)[C@@H](N)Cc1c[nH]cn1)[C@@H](C)O)[C@@H](C)O)C(C)C)C(C)C)C(=O)N[C@@H](CC(C)C)C(=O)NC(C)(C)C(=O)N[C@@H](CCC(=O)O)C(=O)O [Peptide 153] (H-H[Aib]QGTFTSDVSK[αMeF]LDSK([AEEA-AEEA-γGlu-C20 diacid])RAQDFVRWLL[Aib]E-OH; N-terminus assumed)
4 | 0.333 nM | 0.304 nM | 2.2 | CC(C)C[C@H](NC(=O)[C@H](Cc1c[nH]c2ccccc12)NC(=O)[C@H](CCCNC(=N)N)NC(=O)[C@@H](NC(=O)[C@H](Cc1ccccc1)NC(=O)[C@H](CC(=O)O)NC(=O)[C@H](CCC(N)=O)NC(=O)[C@H](C)NC(=O)[C@H](CCCNC(=N)N)NC(=O)[C@H](CCCCNC(=O)COCCOCCNC(=O)COCCOCCNC(=O)CC[C@H](NC(=O)CCCCCCCCCCCCCCCCCCC(=O)O)C(=O)O)NC(=O)[C@H](CO)NC(=O)[C@H](CC(=O)O)NC(=O)[C@H](CC(C)C)NC(=O)[C@](C)(Cc1ccccc1)NC(=O)[C@H](CCCCN)NC(=O)[C@H](CO)NC(=O)[C@@H](NC(=O)[C@H](CC(=O)O)NC(=O)[C@H](CO)NC(=O)[C@@H](NC(=O)[C@H](Cc1ccccc1)NC(=O)[C@@H](NC(=O)CNC(=O)[C@H](CCC(N)=O)NC(=O)C(C)(C)NC(=O)[C@@H](N)Cc1c[nH]cn1)[C@@H](C)O)[C@@H](C)O)C(C)C)C(C)C)C(=O)N[C@@H](CC(C)C)C(=O)N[C@@H](CCC(=O)O)C(=O)NC(C)(C)C(=O)NCC(=O)O [Peptide 158] (H-H[Aib]QGTFTSDVSK[αMeF]LDSK([AEEA-AEEA-γGlu-C20 diacid])RAQDFVRWLLE[Aib]G-OH; N-terminus assumed)
5 | 0.145 nM | 0.145 nM | 2.0 | CC(C)C[C@H](NC(=O)[C@H](Cc1c[nH]c2ccccc12)NC(=O)[C@H](CCCNC(=N)N)NC(=O)[C@@H](NC(=O)[C@H](Cc1ccccc1)NC(=O)[C@H](CC(=O)O)NC(=O)[C@H](CCC(N)=O)NC(=O)[C@H](C)NC(=O)[C@H](CCCNC(=N)N)NC(=O)[C@H](CCCCNC(=O)COCCOCCNC(=O)COCCOCCNC(=O)CC[C@H](NC(=O)CCCCCCCCCCCCCCCCCCC(=O)O)C(=O)O)NC(=O)[C@@H](NC(=O)[C@H](CC(=O)O)NC(=O)[C@H](CC(C)C)NC(=O)[C@](C)(Cc1ccccc1)NC(=O)[C@H](CCCCN)NC(=O)[C@H](CO)NC(=O)[C@@H](NC(=O)[C@H](CC(=O)O)NC(=O)[C@H](CO)NC(=O)[C@@H](NC(=O)[C@H](Cc1ccccc1)NC(=O)[C@@H](NC(=O)CNC(=O)[C@H](CCC(N)=O)NC(=O)C(C)(C)NC(=O)[C@@H](N)Cc1c[nH]cn1)[C@@H](C)O)[C@@H](C)O)C(C)C)[C@@H](C)O)C(C)C)C(=O)N[C@@H](CC(C)C)C(=O)N[C@@H](CCC(=O)O)C(=O)NC(C)(C)C(=O)NCC(=O)O [Peptide 159]
6 | 0.417 nM | 0.0552 nM | 14.9 | CC(C)C[C@H](NC(=O)[C@H](Cc1c[nH]c2ccccc12)NC(=O)[C@H](CCCNC(=N)N)NC(=O)[C@@H](NC(=O)[C@H](Cc1ccccc1)NC(=O)[C@H](CC(=O)O)NC(=O)[C@H](CCC(N)=O)NC(=O)[C@H](C)NC(=O)[C@H](CCCNC(=N)N)NC(=O)[C@H](CCCCNC(=O)COCCOCCNC(=O)COCCOCCNC(=O)CC[C@H](NC(=O)CCCCCCCCCCCCCCCCC(=O)O)C(=O)O)NC(=O)[C@H](CO)NC(=O)[C@H](CCC(=O)O)NC(=O)[C@H](CC(C)C)NC(=O)[C@](C)(Cc1ccccc1)NC(=O)[C@H](CCCCN)NC(=O)[C@H](CO)NC(=O)[C@@H](NC(=O)[C@H](CC(=O)O)NC(=O)[C@H](CO)NC(=O)[C@@H](NC(=O)[C@H](Cc1ccccc1)NC(=O)[C@@H](NC(=O)CNC(=O)[C@H](CCC(N)=O)NC(=O)C(C)(C)NC(=O)[C@@H](N)Cc1c[nH]cn1)[C@@H](C)O)[C@@H](C)O)C(C)C)C(C)C)C(=O)N[C@@H](CC(C)C)C(=O)N[C@@H](CCC(=O)O)C(=O)NC(C)(C)C(=O)NCC(=O)O [Peptide 160] (H-H[Aib]QGTFTSDVSK[αMeF]LESK([AEEA-AEEA-γGlu-C18 diacid])RAQDFVRWLLE[Aib]G-OH)
7 | 0.188 nM and 1.03 nM | 0.0172 nM and 0.0509 nM | 21.6 and 40.0 | CC(C)C[C@H](NC(=O)[C@H](Cc1c[nH]c2ccccc12)NC(=O)[C@H](C)NC(=O)[C@@H](NC(=O)[C@H](Cc1ccccc1)NC(=O)[C@H](CC(=O)O)NC(=O)[C@H](CCCNC(=N)N)NC(=O)[C@H](C)NC(=O)[C@H](CCCNC(=N)N)NC(=O)[C@H](CCCCNC(=O)COCCOCCNC(=O)COCCOCCNC(=O)CC[C@H](NC(=O)CCCCCCCCCCCCCCCCC(=O)O)C(=O)O)NC(=O)[C@H](C)NC(=O)[C@H](CCC(=O)O)NC(=O)[C@H](CC(C)C)NC(=O)[C@](C)(Cc1ccccc1)NC(=O)[C@H](CCCCN)NC(=O)[C@H](CO)NC(=O)[C@@H](NC(=O)[C@H](CC(=O)O)NC(=O)[C@H](CO)NC(=O)[C@@H](NC(=O)[C@H](Cc1ccccc1)NC(=O)[C@@H](NC(=O)CNC(=O)[C@H](CCC(N)=O)NC(=O)C(C)(C)NC(=O)[C@@H](N)Cc1c[nH]cn1)[C@@H](C)O)[C@@H](C)O)C(C)C)C(C)C)C(=O)N[C@@H](CC(C)C)C(=O)N[C@@H](CCC(=O)O)C(=O)NC(C)(C)C(=O)NCC(=O)O [Peptide 161] (H-H[Aib]QGTFTSDVSK[αMeF]LEAK([AEEA-AEEA-γGlu-C18 diacid])RARDFVAWLLE[Aib]G-OH)
8 | 1.03 nM | 0.0596 nM | 34.1 | CC[C@H](C)[C@H](NC(=O)[C@H](Cc1c[nH]c2ccccc12)NC(=O)[C@H](CCCNC(=N)N)NC(=O)[C@@H](NC(=O)[C@H](Cc1ccccc1)NC(=O)[C@H](CC(=O)O)NC(=O)[C@H](CCC(N)=O)NC(=O)[C@H](C)NC(=O)[C@H](CCCNC(=N)N)NC(=O)[C@H](CCCCNC(=O)COCCOCCNC(=O)COCCOCCNC(=O)CC[C@H](NC(=O)CCCCCCCCCCCCCCCCC(=O)O)C(=O)O)NC(=O)[C@H](CO)NC(=O)[C@H](CC(=O)O)NC(=O)[C@H](CC(C)C)NC(=O)[C@](C)(Cc1ccccc1)NC(=O)[C@H](CCCCN)NC(=O)[C@H](CO)NC(=O)[C@@H](NC(=O)[C@H](CC(=O)O)NC(=O)[C@H](CO)NC(=O)[C@@H](NC(=O)[C@H](Cc1ccccc1)NC(=O)[C@@H](NC(=O)CNC(=O)[C@H](CCC(N)=O)NC(=O)C(C)(C)NC(=O)[C@@H](N)Cc1c[nH]cn1)[C@@H](C)O)[C@@H](C)O)C(C)C)C(C)C)C(=O)N[C@@H](C)C(=O)NC(C)(C)C(=O)N[C@H](C(=O)N[C@@H](CCC(=O)O)C(=O)O)[C@@H](C)O [Peptide 162] (H-H[Aib]QGTFTSDVSK[αMeF]LDSK([AEEA-AEEA-γGlu-C18 diacid])RAQDFVRWIA[Aib]TE-OH; N-terminus assumed)
